Measured values published in patent US20250223268A1, “4-Methylsulfonylbenzamide Compound, Preparation Method, Herbicidal Composition And Use” (Jiangsu Flag Chemical Industry Co., Ltd., priority 2022, published 2025).

Assays:
Format in all cases: in vivo
[1] = system: Oryza sativa subsp. indica; assay: Greenhouse herbicidal activity and crop safety comparison (Test Example 2)
From the text: (§1) Pre-emergence: Seeds of gramineous weeds (Echinochloa crusgalli, Echinochloa crusgalli var. zelayensis, Echinochloa phyllopogon, Eleusine indica, Digitaria sanguinalis, Leptochloa chinensis, Setaria viridis, Alopecurus japonicus Steud, Beckmannia syzigachne, Polypogon fugax, Alopecurus aequalis, Lolium multiflorum, Poa annua, Aegilops tataschii, Avena fatua, Alopecurus myosuroides, Bromus japonicus), broadleaf weeds (Eclipta prostrata, Amaranthus retroflexus, Rorippa indica, Myosoton aquaticum, Veronica didyma, Galium aparine, Solanum nigrum, Xanthium sibiricum, Conyza canadensis, Sesbania cannabina, Sagittaria trifolia), and Cyperus iria (Cyperus iria, Scirpus juncoides, Cyperus difformis, etc.) were sown in plastic pots (7 cm diameter) with nutrient soil and bottom holes. Crop seeds (including Oryza sativa subsp. indica, Oryza sativa subsp. japonica, Oryza sativa L. var. Glutinosa matsum, Triticum aestivum, Zea mays, Sorghum bicolor, Setaria italica, Glycine max, Gossypium hirsutum, Brassica napus, Arachis hypogaea) were sown in plastic pots (10 cm diameter) with nutrient soil and bottom holes. After sowing, the seeds were lightly covered with soil, and the soil was moistened via bottom water absorption. The pots were placed in a constant-temperature light-controlled growth chamber for 24 hours before soil spraying. Spraying was performed using a 3WP-2000 walking-type spray tower (produced by the Nanjing Agricultural Mechanization Institute, Ministry of Agriculture) with a spindle speed of 96 mm/r, spray height of 300 mm, effective spray width of 350 mm, spray area of 0.35 m^2, and nozzle flow rate of 390 mL/min.
(§2) After treatment, the test materials were air-dried naturally in the laboratory and then transferred to the growth chamber. Results were assessed 14-30 days later.
(§3) Post-emergence: Seeds of gramineous weeds (Echinochloa crusgalli, Echinochloa crusgalli var. zelayensis, Echinochloa phyllopogon, Eleusine indica, Digitaria sanguinalis, Leptochloa chinensis, Setaria viridis, Alopecurus japonicus Steud, Beckmannia syzigachne, Polypogon fugax, Alopecurus aequalis, Lolium multiflorum, Poa annua, Aegilops tataschii, Avena fatua, Alopecurus myosuroides, Bromus japonicus), broadleaf weeds (Eclipta prostrata, Amaranthus retroflexus, Rorippa indica, Myosoton aquaticum, Veronica didyma, Galium aparine, Solanum nigrum, Xanthium sibiricum, Conyza canadensis, Sesbania cannabina, Sagittaria trifolia), and Cyperus iria (Cyperus iria, Scirpus juncoides, Cyperus difformis, etc.) were sown in plastic pots (7 cm diameter) with nutrient soil and bottom holes. Crop seeds (including Oryza sativa subsp. indica, Oryza sativa subsp. japonica, Oryza sativa L. var. Glutinosa matsum, Triticum aestivum, Zea mays, Sorghum bicolor, Setaria italica, Glycine max, Gossypium hirsutum, Brassica napus, Arachis hypogaea) were sown in plastic pots (10 cm diameter) with nutrient soil and bottom holes. After sowing, the pots were placed in the growth chamber until the plants reached the 3-6 leaf stage for foliar spraying. Post-treatment, the materials were air-dried naturally and returned to the growth chamber. Results were assessed 14-21 days later.
(§4) • A: Fresh weight inhibition rate≥80% to 100%; • B: Fresh weight inhibition rate[…] to <80%; • C: Fresh weight inhibition rate≥40% to <60%; • D: Fresh weight inhibition rate≥20% to <40%; • E: Fresh weight inhibition rate<20%; • NT: Not tested.
(§5) Using the above method, the herbicidal activity and crop safety of the present compounds were compared with structurally similar known compounds (CK1, CK2, CK3, CK4: compounds 4-756, 4-759, 1-557, 1-563 from WO2012028579A1; CK5: compound 290-1 from WO2013087577A1; CK6: compound 1-129 from WO2011035874A1).

[2] = system: Oryza sativa subsp. japonica; assay: as above
From the text: as §1, §2, §3, §4, §5

[3] = system: Echinochloa crusgalli; assay: as above
From the text: as §1, §2, §3, §4, §5

[4] = system: Echinochloa crusgalli; assay: Greenhouse herbicidal activity assay, post-emergence; details: Post-emergence test, rate 150 g a.i./hm^2, grade by fresh weight inhibition rate
Method in brief: (§6)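 Graded A (≥80%) to E (<20%) by fresh weight inhibition, read 14-21 days after spraying. Plants were pot-grown in a growth chamber and received foliar application at the 3-6 leaf stage, being air-dried and returned to the chamber afterwards.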

[5] = system: Leptochloa chinensis; assay: as above; details: Post-emergence test, rate 150 g a.i./hm^2; grade by fresh weight inhibition rate
Method in brief: as §6

[6] = Echinochloa crus-galli, Rate 75 g/ha, read-out: Echinochloa crusgalli, control efficacy grading (fresh weight inhibition rate)
[7] = Echinochloa crus-galli, Rate 150 g/ha, read-out: Echinochloa crusgalli, control efficacy grading (fresh weight inhibition rate)

Cc1nnc(N(C)C(=O)c2ccc(S(C)(=O)=O)c([S+](C)[O-])c2Cl)o1 (centres unmarked) [CK5, reference compound]
Oryza sativa subsp. indica, grading of fresh weight inhibition rate (crop safety) ([1]; Rate 18.75 g/ha): E (Fresh weight inhibition rate<20%) | Oryza sativa subsp. indica, grading of fresh weight inhibition rate (crop safety) ([1]; Rate 75 g/ha): E (Fresh weight inhibition rate<20%) | Oryza sativa subsp. indica, grading of fresh weight inhibition rate (crop safety) ([1]; Rate 150 g/ha): D (Fresh weight inhibition rate≥20% to <40%) | Oryza sativa subsp. japonica, grading of fresh weight inhibition rate (crop safety) ([2]; Rate 18.75 g/ha): E (Fresh weight inhibition rate<20%) | Oryza sativa subsp. japonica, grading of fresh weight inhibition rate (crop safety) ([2]; Rate 75 g/ha): E (Fresh weight inhibition rate<20%) | Oryza sativa subsp. japonica, grading of fresh weight inhibition rate (crop safety) ([2]; Rate 150 g/ha): E (Fresh weight inhibition rate<20%) | inhibition at 18.75 g/ha ([3]; Echinochloa crus-galli, Rate 18.75 g/ha, read-out: Echinochloa crusgalli, control efficacy grading (fresh weight inhibition rate)): < 20% | inhibition at 75 g/ha [3, 6]: < 20% | inhibition at 150 g/ha [3, 7]: 20 to 40%

CCC[S+]([O-])c1c(S(C)(=O)=O)ccc(C(=O)N(C)c2nnco2)c1Cl (racemic) [Compound 3-795]
Oryza sativa subsp. indica, grading of fresh weight inhibition rate (crop safety) ([1]; Rate 150 g/ha): E (Fresh weight inhibition rate<20%) | Oryza sativa subsp. japonica, grading of fresh weight inhibition rate (crop safety) ([2]; Rate 150 g/ha): E (Fresh weight inhibition rate<20%) | Echinochloa crusgalli, control efficacy grading (fresh weight inhibition rate) ([3]; Rate 150 g/ha): A (Fresh weight inhibition rate≥80% to 100%) | Control efficacy grade, Echinochloa crusgalli [4]: A (Fresh weight inhibition rate≥80% to 100%)

CCC[S+]([O-])c1c(S(C)(=O)=O)ccc(C(=O)N(C)c2nnc(CC)o2)c1Cl (racemic) [Compound 3-798]
Oryza sativa subsp. indica, grading of fresh weight inhibition rate (crop safety) ([1]; Rate 150 g/ha): E (Fresh weight inhibition rate<20%) | Oryza sativa subsp. japonica, grading of fresh weight inhibition rate (crop safety) ([2]; Rate 150 g/ha): E (Fresh weight inhibition rate<20%) | Echinochloa crusgalli, control efficacy grading (fresh weight inhibition rate) ([3]; Rate 150 g/ha): A (Fresh weight inhibition rate≥80% to 100%) | Control efficacy grade, Echinochloa crusgalli [4]: A (Fresh weight inhibition rate≥80% to 100%)

CCn1nnnc1NC(=O)c1ccc(S(C)(=O)=O)c(S(=O)(=O)C(C)C)c1Cl [Compound 1-96, 2-chloro-N-(1-ethyl-1H-tetrazol-5-yl)-3-(isopropylsulfonyl)-4-(methylsulfonyl)benzamide]
Oryza sativa subsp. indica, grading of fresh weight inhibition rate (crop safety) ([1]; Rate 150 g/ha): E (Fresh weight inhibition rate<20%) | Oryza sativa subsp. japonica, grading of fresh weight inhibition rate (crop safety) ([2]; Rate 150 g/ha): E (Fresh weight inhibition rate<20%) | inhibition at 150 g/ha [3, 7]: 80 to 100%

CCC[S+]([O-])c1c(S(C)(=O)=O)ccc(C(=O)N(C)c2nnc(C)o2)c1Cl (racemic) [Compound 3-787, 2-chloro-N-methyl-N-(5-methyl-1,3,4-oxadiazol-2-yl)-4-(methylsulfonyl)-3-(propylsulfinyl)benzamide]
Oryza sativa subsp. indica, grading of fresh weight inhibition rate (crop safety) ([1]; Rate 75 g/ha): E (Fresh weight inhibition rate<20%) | Oryza sativa subsp. indica, grading of fresh weight inhibition rate (crop safety) ([1]; Rate 150 g/ha): E (Fresh weight inhibition rate<20%) | Oryza sativa subsp. japonica, grading of fresh weight inhibition rate (crop safety) ([2]; Rate 75 g/ha): E (Fresh weight inhibition rate<20%) | Oryza sativa subsp. japonica, grading of fresh weight inhibition rate (crop safety) ([2]; Rate 150 g/ha): E (Fresh weight inhibition rate<20%) | inhibition at 75 g/ha [3, 6]: 80 to 100% | inhibition at 150 g/ha [3, 7]: 80 to 100% | pest or weed control at 150 g/ha ([4]; Echinochloa crus-galli, read-out: Control efficacy grade, Echinochloa crusgalli): 80 to 100%

Cc1nnc(N(C)C(=O)c2ccc(S(C)(=O)=O)c([S+]([O-])C(C)C)c2Cl)o1 (racemic) [Compound 3-807]
Oryza sativa subsp. indica, grading of fresh weight inhibition rate (crop safety) ([1]; Rate 75 g/ha): E (Fresh weight inhibition rate<20%) | Oryza sativa subsp. indica, grading of fresh weight inhibition rate (crop safety) ([1]; Rate 150 g/ha): E (Fresh weight inhibition rate<20%) | Oryza sativa subsp. japonica, grading of fresh weight inhibition rate (crop safety) ([2]; Rate 75 g/ha): E (Fresh weight inhibition rate<20%) | Oryza sativa subsp. japonica, grading of fresh weight inhibition rate (crop safety) ([2]; Rate 150 g/ha): E (Fresh weight inhibition rate<20%) | Control efficacy grade, Echinochloa crusgalli [4]: A (Fresh weight inhibition rate≥80% to 100%)

Cn1nnnc1NC(=O)c1ccc(S(C)(=O)=O)c(S(C)(=O)=O)c1Cl [CK1, reference compound]
Oryza sativa subsp. indica, grading of fresh weight inhibition rate (crop safety) ([1]; Rate 18.75 g/ha): C (Fresh weight inhibition rate≥40% to <60%) | Oryza sativa subsp. indica, grading of fresh weight inhibition rate (crop safety) ([1]; Rate 75 g/ha): C (Fresh weight inhibition rate≥40% to <60%) | Oryza sativa subsp. indica, grading of fresh weight inhibition rate (crop safety) ([1]; Rate 150 g/ha): B (Fresh weight inhibition rate≥260% to <80%) | Oryza sativa subsp. japonica, grading of fresh weight inhibition rate (crop safety) ([2]; Rate 18.75 g/ha): C (Fresh weight inhibition rate≥40% to <60%) | Oryza sativa subsp. japonica, grading of fresh weight inhibition rate (crop safety) ([2]; Rate 75 g/ha): C (Fresh weight inhibition rate≥40% to <60%) | Oryza sativa subsp. japonica, grading of fresh weight inhibition rate (crop safety) ([2]; Rate 150 g/ha): B (Fresh weight inhibition rate≥260% to <80%) | inhibition at 75 g/ha [3, 6]: 80 to 100% | inhibition at 150 g/ha [3, 7]: 80 to 100%

CCC[S+]([O-])c1c(S(C)(=O)=O)ccc(C(=O)N(C)c2nnc(C(C)C)o2)c1Cl (racemic) [Compound 3-801]
Oryza sativa subsp. indica, grading of fresh weight inhibition rate (crop safety) ([1]; Rate 150 g/ha): E (Fresh weight inhibition rate<20%) | Oryza sativa subsp. japonica, grading of fresh weight inhibition rate (crop safety) ([2]; Rate 150 g/ha): E (Fresh weight inhibition rate<20%) | Echinochloa crusgalli, control efficacy grading (fresh weight inhibition rate) ([3]; Rate 150 g/ha): A (Fresh weight inhibition rate≥80% to 100%)

CCS(=O)(=O)c1c(S(C)(=O)=O)ccc(C(=O)Nc2nnnn2C)c1Cl [CK2, reference compound]
Oryza sativa subsp. indica, grading of fresh weight inhibition rate (crop safety) ([1]; Rate 18.75 g/ha): C (Fresh weight inhibition rate≥40% to <60%) | Oryza sativa subsp. indica, grading of fresh weight inhibition rate (crop safety) ([1]; Rate 75 g/ha): C (Fresh weight inhibition rate≥40% to <60%) | Oryza sativa subsp. indica, grading of fresh weight inhibition rate (crop safety) ([1]; Rate 150 g/ha): B (Fresh weight inhibition rate≥260% to <80%) | Oryza sativa subsp. japonica, grading of fresh weight inhibition rate (crop safety) ([2]; Rate 18.75 g/ha): C (Fresh weight inhibition rate≥40% to <60%) | Oryza sativa subsp. japonica, grading of fresh weight inhibition rate (crop safety) ([2]; Rate 75 g/ha): C (Fresh weight inhibition rate≥40% to <60%) | Oryza sativa subsp. japonica, grading of fresh weight inhibition rate (crop safety) ([2]; Rate 150 g/ha): B (Fresh weight inhibition rate≥260% to <80%) | inhibition at 75 g/ha [3, 6]: 80 to 100% | inhibition at 150 g/ha [3, 7]: 80 to 100%

CCC[S+]([O-])c1c(S(C)(=O)=O)ccc(C(=O)N(C)c2nnc(C)o2)c1Cl (single isomer, unassigned) [Compound 3-788]
Oryza sativa subsp. indica, grading of fresh weight inhibition rate (crop safety) ([1]; Rate 75 g/ha): E (Fresh weight inhibition rate<20%) | Oryza sativa subsp. indica, grading of fresh weight inhibition rate (crop safety) ([1]; Rate 150 g/ha): E (Fresh weight inhibition rate<20%) | Oryza sativa subsp. japonica, grading of fresh weight inhibition rate (crop safety) ([2]; Rate 75 g/ha): E (Fresh weight inhibition rate<20%) | Oryza sativa subsp. japonica, grading of fresh weight inhibition rate (crop safety) ([2]; Rate 150 g/ha): E (Fresh weight inhibition rate<20%) | Echinochloa crusgalli, control efficacy grading (fresh weight inhibition rate) ([3]; Rate 75 g/ha): A (Fresh weight inhibition rate≥80% to 100%) | Echinochloa crusgalli, control efficacy grading (fresh weight inhibition rate) ([3]; Rate 150 g/ha): A (Fresh weight inhibition rate≥80% to 100%) | Control efficacy grade, Leptochloa chinensis [5]: A (Fresh weight inhibition rate≥80% to 100%) | Control efficacy grade, Echinochloa crusgalli [4]: A (Fresh weight inhibition rate≥80% to 100%)

CCCS(=O)(=O)c1c(S(C)(=O)=O)ccc(C(=O)Nc2nnnn2CC)c1Cl [Compound 1-91]
Oryza sativa subsp. indica, grading of fresh weight inhibition rate (crop safety) ([1]; Rate 150 g/ha): E (Fresh weight inhibition rate<20%) | Oryza sativa subsp. japonica, grading of fresh weight inhibition rate (crop safety) ([2]; Rate 150 g/ha): E (Fresh weight inhibition rate<20%) | Echinochloa crusgalli, control efficacy grading (fresh weight inhibition rate) ([3]; Rate 150 g/ha): A (Fresh weight inhibition rate≥80% to 100%)

CC(C)[S+]([O-])c1c(S(C)(=O)=O)ccc(C(=O)N(C)c2nnco2)c1Cl (racemic) [Compound 3-804]
Oryza sativa subsp. indica, grading of fresh weight inhibition rate (crop safety) ([1]; Rate 150 g/ha): E (Fresh weight inhibition rate<20%) | Oryza sativa subsp. japonica, grading of fresh weight inhibition rate (crop safety) ([2]; Rate 150 g/ha): E (Fresh weight inhibition rate<20%) | Control efficacy grade, Echinochloa crusgalli [4]: A (Fresh weight inhibition rate≥80% to 100%)
